According to patent US10059713B2 (Takeda Pharmaceutical Company Limited, priority 2014, dated 2018):

molecular target: human GPR43 (Homo sapiens (Human), UniProt O15552); test: Ca-Flux functional assay: determination of agonist/positive allosteric modulator (PAM) activity; format: cell-based; conditions: CHO-K1 Gα16 cells stably expressing human GPR43; compound added with EC20 sodium acetate; intracellular Ca2+ by FLIPR; does not distinguish agonist from PAM
In short: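 Agonist or PAM activity read as intracellular Ca2+ rise by FLIPR after adding compound plus EC20 acetate, acetate EC20 set from a prior curve. Cells: CHO-K1 Gα16 with stable human GPR43. EC50 from ten-point half-log curves starting 10 μM.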

Chain of human GPR43 (O15552 whole entry): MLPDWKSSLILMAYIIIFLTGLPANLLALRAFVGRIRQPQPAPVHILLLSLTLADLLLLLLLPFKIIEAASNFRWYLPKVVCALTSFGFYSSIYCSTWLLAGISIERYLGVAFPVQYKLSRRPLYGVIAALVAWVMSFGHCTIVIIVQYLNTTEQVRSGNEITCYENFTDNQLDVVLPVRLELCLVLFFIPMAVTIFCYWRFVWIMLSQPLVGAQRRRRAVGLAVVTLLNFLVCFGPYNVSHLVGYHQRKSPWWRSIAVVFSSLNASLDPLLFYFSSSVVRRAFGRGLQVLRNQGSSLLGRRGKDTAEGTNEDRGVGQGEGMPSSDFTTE

EC50 [nM] | SMILES
67 | Cc1cccc(S(=O)(=O)c2c(N)[nH]c3c(N4CCOC(C)C4)ncnc23)c1 (centres unmarked) [Example 121, 7-(3-methylbenzenesulfonyl)-4-(2-methylmorpholin-4-yl)-5H-pyrrolo[3,2-d]pyrimidin-6-amine]
625 | CC1CN(c2ncnc3c(S(=O)(=O)c4cccnc4)c(N)[nH]c23)CCO1 (centres unmarked) [Example 122, 4-(2-methylmorpholin-4-yl)-7-(pyridine-3-sulfonyl)-5H-pyrrolo[3,2-d]pyrimidin-6-amine]
115 | COc1ccc(S(=O)(=O)c2c(N)[nH]c3c(N4CCOC(C)C4)ncnc23)cc1Cl (centres unmarked) [Example 123, 7-(3-chloro-4-methoxybenzenesulfonyl)-4-(2-methylmorpholin-4-yl)-5H-pyrrolo[3,2-d]pyrimidin-6-amine]
63 | COc1ccc(S(=O)(=O)c2c(N)[nH]c3c(N4CCOC(C)C4)ncnc23)cc1F (centres unmarked) [Example 124, 7-(3-fluoro-4-methoxybenzenesulfonyl)-4-(2-methylmorpholin-4-yl)-5H-pyrrolo[3,2-d]pyrimidin-6-amine]
797 | Nc1[nH]c2c(-n3cccn3)ncnc2c1S(=O)(=O)c1ccccc1 [Example 128, 7-(benzenesulfonyl)-4-(1H-pyrazol-1-yl)-5H-pyrrolo[3,2-d]pyrimidin-6-amine]
24 | Nc1[nH]c2c(N3CCO[C@H](c4ccccc4)C3)ncnc2c1S(=O)(=O)c1ccccc1 [Example 133, 7-(benzenesulfonyl)-4-[(2R)-2-phenylmorpholin-4-yl]-5H-pyrrolo[3,2-d]pyrimidin-6-amine]
235 | Nc1[nH]c2c(C3=CCCCC3)ncnc2c1Sc1ccccc1 [Example 135, 4-(cyclohex-1-en-1-yl)-7-(phenylsulfanyl)-5H-pyrrolo[3,2-d]pyrimidin-6-amine]
118 | CC1CN(c2ncnc3c(S(=O)(=O)c4ccc(C(F)(F)F)cc4)c(N)[nH]c23)CCO1 (centres unmarked) [Example 136, 4-(2-methylmorpholin-4-yl)-7-[4-(trifluoromethyl)benzenesulfonyl]-5H-pyrrolo[3,2-d]pyrimidin-6-amine]
52 | C[C@@H]1CN(c2ncnc3c(S(=O)(=O)c4ccccc4)c(N)[nH]c23)CCO1 [Example 137, 7-(benzenesulfonyl)-4-[(2R)-2-methylmorpholin-4-yl]-5H-pyrrolo[3,2-d]pyrimidin-6-amine]
72 | Cc1cc(C)n(-c2ncnc3c(S(=O)(=O)c4ccccc4)c(N)[nH]c23)n1 [Example 140, 7-(benzenesulfonyl)-4-(3,5-dimethyl-1H-pyrazol-1-yl)-5H-pyrrolo[3,2-d]pyrimidin-6-amine]
9 | Cc1ccc(S(=O)(=O)c2c(N)[nH]c3c(N4CCOC(C)C4)ncnc23)c(F)c1 (centres unmarked) [Example 146, 7-(2-fluoro-4-methylbenzenesulfonyl)-4-(2-methylmorpholin-4-yl)-5H-pyrrolo[3,2-d]pyrimidin-6-amine]
88 | CC1CN(c2ncnc3c(S(=O)(=O)c4cc(F)cc(F)c4)c(N)[nH]c23)CCO1 (centres unmarked) [Example 147, 7-(3,5-difluorobenzenesulfonyl)-4-(2-methylmorpholin-4-yl)-5H-pyrrolo[3,2-d]pyrimidin-6-amine]
14 | Cc1cccc(-c2nc(C)nc3c(S(=O)(=O)c4ccccc4)c(N)[nH]c23)c1 [Example 148, 7-(benzenesulfonyl)-2-methyl-4-(3-methylphenyl)-5H-pyrrolo[3,2-d]pyrimidin-6-amine]
933 | Nc1[nH]c2c(N3CCCC4(COC4)C3)ncnc2c1S(=O)(=O)c1ccccc1 [Example 150, 7-(benzenesulfonyl)-4-{2-oxa-6-azaspiro[3.5]nonan-6-yl}-5H-pyrrolo[3,2-d]pyrimidin-6-amine]
2150 | COc1ccccc1S(=O)(=O)c1c(N)[nH]c2c(N3CCOC(C)C3)ncnc12 (centres unmarked) [Example 152, 7-(2-methoxybenzenesulfonyl)-4-(2-methylmorpholin-4-yl)-5H-pyrrolo[3,2-d]pyrimidin-6-amine]
47 | COc1cccc(S(=O)(=O)c2c(N)[nH]c3c(N4CCOC(C)C4)ncnc23)c1 (centres unmarked) [Example 154, 7-(3-methoxybenzenesulfonyl)-4-(2-methylmorpholin-4-yl)-5H-pyrrolo[3,2-d]pyrimidin-6-amine]
330 | Nc1[nH]c2c(C3CCC(F)(F)CC3)ncnc2c1S(=O)(=O)c1ccccc1 [Example 155, 7-(benzenesulfonyl)-4-(4,4-difluorocyclohexyl)-5H-pyrrolo[3,2-d]pyrimidin-6-amine]
1580 | Nc1[nH]c2c(OCC3CCCOC3)ncnc2c1S(=O)(=O)c1ccccc1 (centres unmarked) [Example 157, 7-(benzenesulfonyl)-4-(oxan-3-ylmethoxy)-5H-pyrrolo[3,2-d]pyrimidin-6-amine]

The remaining lines, values behind:

SMILES | EC50 [nM]
Nc1[nH]c2c(OCC3CCOC3)ncnc2c1S(=O)(=O)c1ccccc1 (centres unmarked) [Example 119, 7-(benzenesulfonyl)-4-(oxolan-3-ylmethoxy)-5H-pyrrolo[3,2-d]pyrimidin-6-amine] | 2960
Cc1ccccc1S(=O)(=O)c1c(N)[nH]c2c(N3CCOC(C)C3)ncnc12 (centres unmarked) [Example 120, 7-(2-methylbenzenesulfonyl)-4-(2-methylmorpholin-4-yl)-5H-pyrrolo[3,2-d]pyrimidin-6-amine] | 131
CC1CN(c2ncnc3c(S(=O)(=O)Cc4ccccc4)c(N)[nH]c23)CCO1 (centres unmarked) [Example 125, 4-(2-methylmorpholin-4-yl)-7-phenylmethanesulfonyl-5H-pyrrolo[3,2-d]pyrimidin-6-amine] | 5520
CC(C)Oc1ccc(S(=O)(=O)c2c(N)[nH]c3c(N4CCOC(C)C4)ncnc23)cc1 (centres unmarked) [Example 126, 4-(2-methylmorpholin-4-yl)-7-[4-(propan-2-yloxy)benzenesulfonyl]-5H-pyrrolo[3,2-d]pyrimidin-6-amine] | 53
Nc1[nH]c2c(C3=CCC(F)(F)CC3)ncnc2c1S(=O)(=O)c1ccccc1 [Example 127, 7-(benzenesulfonyl)-4-(4,4-difluorocyclohex-1-en-1-yl)-5H-pyrrolo[3,2-d]pyrimidin-6-amine] | 36
COc1ccc(S(=O)(=O)c2c(N)[nH]c3c(N4CCOC(C)(C)C4)ncnc23)cc1 [Example 129, 4-(2,2-dimethylmorpholin-4-yl)-7-(4-methoxybenzenesulfonyl)-5H-pyrrolo[3,2-d]pyrimidin-6-amine] | 33
COc1ccc(S(=O)(=O)c2c(N)[nH]c3c(N4C[C@@H](C)O[C@@H](C)C4)ncnc23)cc1 [Example 130, 4-[(2R,6S)-2,6-dimethylmorpholin-4-yl]-7-(4-methoxybenzenesulfonyl)-5H-pyrrolo[3,2-d]pyrimidin-6-amine] | 20
Nc1[nH]c2c(C3CCCCC3)nc(C3CC3)nc2c1S(=O)(=O)c1ccccc1 [Example 131, 7-(benzenesulfonyl)-4-cyclohexyl-2-cyclopropyl-5H-pyrrolo[3,2-d]pyrimidin-6-amine] | 166
Nc1[nH]c2c(N3CC4CCC(C3)O4)ncnc2c1S(=O)(=O)c1ccccc1 [Example 132, 7-(benzenesulfonyl)-4-{8-oxa-3-azabicyclo[3.2.1]octan-3-yl}-5H-pyrrolo[3,2-d]pyrimidin-6-amine] | 1510
Nc1[nH]c2c(N3CCO[C@@H](c4ccccc4)C3)ncnc2c1S(=O)(=O)c1ccccc1 [Example 134, 7-(benzenesulfonyl)-4-[(2S)-2-phenylmorpholin-4-yl]-5H-pyrrolo[3,2-d]pyrimidin-6-amine] | 93
Cc1nc(N2C[C@@H](C)O[C@@H](C)C2)c2[nH]c(N)c(S(=O)(=O)c3ccccc3)c2n1 [Example 138, 7-(benzenesulfonyl)-4-[(2R,6S)-2,6-dimethylmorpholin-4-yl]-2-methyl-5H-pyrrolo[3,2-d]pyrimidin-6-amine] | 6
Cc1nc(N2CCOC(C)(C)C2)c2[nH]c(N)c(S(=O)(=O)c3ccccc3)c2n1 [Example 139, 7-(benzenesulfonyl)-4-(2,2-dimethylmorpholin-4-yl)-2-methyl-5H-pyrrolo[3,2-d]pyrimidin-6-amine] | 13
Nc1[nH]c2c(N3CCOC(C(F)(F)F)C3)ncnc2c1S(=O)(=O)c1ccccc1 (centres unmarked) [Example 141, 7-(benzenesulfonyl)-4-[2-(trifluoromethyl)morpholin-4-yl]-5H-pyrrolo[3,2-d]pyrimidin-6-amine] | 12
Cc1nc(N2CCC(F)(F)CC2)c2[nH]c(N)c(S(=O)(=O)c3ccccc3)c2n1 [Example 142, 7-(benzenesulfonyl)-4-(4,4-difluoropiperidin-1-yl)-2-methyl-5H-pyrrolo[3,2-d]pyrimidin-6-amine] | 20
CC1CN(c2ncnc3c(S(=O)(=O)c4ccc(Cl)c(F)c4)c(N)[nH]c23)CCO1 (centres unmarked) [Example 143, 7-(4-chloro-3-fluorobenzenesulfonyl)-4-(2-methylmorpholin-4-yl)-5H-pyrrolo[3,2-d]pyrimidin-6-amine] | 35
C=C(C)c1nc(C)nc2c(S(=O)(=O)c3ccccc3)c(N)[nH]c12 [Example 149, 7-(benzenesulfonyl)-2-methyl-4-(prop-1-en-2-yl)-5H-pyrrolo[3,2-d]pyrimidin-6-amine] | 252
Nc1[nH]c2c(N3CCOC4(CC4)C3)ncnc2c1S(=O)(=O)c1ccccc1 [Example 151, 7-(benzenesulfonyl)-4-{4-oxa-7-azaspiro[2.5]octan-7-yl}-5H-pyrrolo[3,2-d]pyrimidin-6-amine] | 23
CC1CN(c2ncnc3c(S(=O)(=O)CCc4ccccc4)c(N)[nH]c23)CCO1 (centres unmarked) [Example 153, 4-(2-methylmorpholin-4-yl)-7-(2-phenylethanesulfonyl)-5H-pyrrolo[3,2-d]pyrimidin-6-amine] | 814
Nc1[nH]c2c(OCC3CCCCO3)ncnc2c1S(=O)(=O)c1ccccc1 (centres unmarked) [Example 156, 7-(benzenesulfonyl)-4-(oxan-2-ylmethoxy)-5H-pyrrolo[3,2-d]pyrimidin-6-amine] | 3000
Nc1[nH]c2c(O[C@H]3CCOC3)ncnc2c1S(=O)(=O)c1ccccc1 [Example 158, 7-(benzenesulfonyl)-4-[(3S)-oxolan-3-yloxy]-5H-pyrrolo[3,2-d]pyrimidin-6-amine] | 3070
